Experiments:
[1] = target: IL-2-Inducible T-Cell Kinase (ITK) (Homo sapiens (Human), UniProt Q08881); assay: ITK enzyme assay (IL-2-inducible T-cell kinase activity); type: biochemical; conditions: geometric mean of count n
In short: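 Full-length N-Flag/C-His human ITK, pre-incubated 30 min at RT with compound. Reaction in HEPES pH 7.5 buffer with MgCl2, glutathione, gelatin and Brij-35, started with BTK peptide substrate, 60 min at RT. EDTA stop, PT66/APC TR-FRET detection overnight; IC50 fitted by four-parameter logistic.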

[2] = tested on: activated CD4+ human T-cells (IL-2); assay: IL-2 inhibition in supernatants from activated CD4+ human T-cells (cisbio HTRF); type: cell-based; conditions: T-cell; CD3/CD28-activated CD4+ human T cells, ImmunoCult stimulation 20 to 24 hrs; geometric mean of count n
In short: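 Primary human CD4+ T cells activated with CD3/CD28 for 3 days and expanded to 7-9 days total, plated at 30,000 cells/well. Cells preincubated 15 min with compound, then stimulated with ImmunoCult (1:50 final) for 20-24 h at 37° C. Supernatant IL-2 measured by HTRF (665/615 nm); IC50 from four-parameter logistic fit.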

[3] = target: Tropomyosin Receptor Kinase A (TRKA), NTRK1 enzyme (Homo sapiens (Human), UniProt P04629); assay: TRKA (NTRK1) ThermoFisher Z'-LYTE enzyme assay; type: biochemical; conditions: test compound 1 uM, ATP 1 mM; arithmetic mean of count n
Tropomyosin Receptor Kinase A (TRKA), NTRK1 enzyme, sequence (P04629 33-796): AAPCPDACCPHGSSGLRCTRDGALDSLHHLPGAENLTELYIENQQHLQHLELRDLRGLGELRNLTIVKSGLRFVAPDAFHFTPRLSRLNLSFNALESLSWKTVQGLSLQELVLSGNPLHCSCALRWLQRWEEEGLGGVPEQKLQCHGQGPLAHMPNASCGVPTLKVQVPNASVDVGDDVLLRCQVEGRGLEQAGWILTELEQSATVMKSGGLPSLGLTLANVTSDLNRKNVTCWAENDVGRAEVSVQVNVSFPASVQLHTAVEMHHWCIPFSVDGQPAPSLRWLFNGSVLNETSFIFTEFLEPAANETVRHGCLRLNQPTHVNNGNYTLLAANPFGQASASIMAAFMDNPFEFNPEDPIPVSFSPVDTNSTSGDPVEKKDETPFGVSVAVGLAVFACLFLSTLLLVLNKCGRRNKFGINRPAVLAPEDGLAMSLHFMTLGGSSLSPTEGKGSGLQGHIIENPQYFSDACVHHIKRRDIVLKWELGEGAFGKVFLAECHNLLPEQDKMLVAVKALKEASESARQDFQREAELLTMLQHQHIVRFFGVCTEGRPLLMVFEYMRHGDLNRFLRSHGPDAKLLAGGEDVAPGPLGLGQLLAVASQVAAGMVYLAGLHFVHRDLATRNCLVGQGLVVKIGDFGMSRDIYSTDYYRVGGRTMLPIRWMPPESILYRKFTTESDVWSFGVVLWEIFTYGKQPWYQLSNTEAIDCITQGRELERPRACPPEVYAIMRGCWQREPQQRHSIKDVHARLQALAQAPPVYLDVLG
Protocol: TRKA, also known as neurotrophic tyrosine kinase receptor type 1 (NTKR1) activity was determined by measuring the effect of a test compound on the activity against the NTRK1 enzyme using the ThermoFisher Z′-LYTE Assay fluorescence-based coupled enzyme format (www.thermofisher.com/selectscreen). Test compounds were screened at a fixed concentration of 1 uM and the % inhibition was determined compared to controls at a fixed ATP concentration of 1 mM. The resulting effect value for the tested compound was compared to the assay controls to determine the % inhibition (%).

IL-2-Inducible T-Cell Kinase (ITK), sequence (Q08881 whole entry): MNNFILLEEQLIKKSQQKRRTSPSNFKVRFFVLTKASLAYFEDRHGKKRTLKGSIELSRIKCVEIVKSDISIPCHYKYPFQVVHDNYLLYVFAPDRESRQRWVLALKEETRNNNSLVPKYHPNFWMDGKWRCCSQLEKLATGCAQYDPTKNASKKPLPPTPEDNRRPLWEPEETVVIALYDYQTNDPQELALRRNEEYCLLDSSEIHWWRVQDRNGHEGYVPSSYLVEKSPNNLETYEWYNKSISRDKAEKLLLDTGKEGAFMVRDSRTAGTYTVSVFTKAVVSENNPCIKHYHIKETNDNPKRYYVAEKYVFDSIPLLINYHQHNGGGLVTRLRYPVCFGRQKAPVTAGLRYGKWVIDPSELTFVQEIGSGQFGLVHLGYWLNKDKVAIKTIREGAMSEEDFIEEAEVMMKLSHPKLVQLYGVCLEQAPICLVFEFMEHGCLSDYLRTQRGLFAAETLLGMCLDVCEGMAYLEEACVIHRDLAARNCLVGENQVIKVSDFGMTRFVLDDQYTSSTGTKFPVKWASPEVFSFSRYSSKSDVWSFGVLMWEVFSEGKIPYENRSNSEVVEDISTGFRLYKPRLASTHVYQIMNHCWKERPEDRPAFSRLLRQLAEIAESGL

Row | Structure (SMILES) | IC50 [1] [nM] | IC50 [2] [nM] | inhibition at 1 µM [3] [%]
1 | CN(C(=O)C(C)(C)C)c1cnc2nc(-c3n[nH]c4c3C[C@@H]3C[C@]3(C)C4)[nH]c2c1 [Example 86, N-Methyl-N-(2-((4aS,5aR)-5a-methyl-1,4,4a,5,5a,6-hexahydrocyclopropa[f]indazol-3-yl)-1H-imidazo[4,5-b]pyridin-6-yl)pivalamide] | 100 | 466 | 95
2 | CN(C(=O)C1(F)CCC1)c1cnc2[nH]c(-c3n[nH]c4c3CCC(C)(C)C4)nc2c1 [Example 95, N-(2-(6,6-Dimethyl-4,5,6,7-tetrahydro-1H-indazol-3-yl)-3H-imidazo[4,5-b]pyridin-6-yl)-1-fluoro-N-methylcyclobutane-1-carboxamide] | 64 | 266 | 93
3 | CN(C(=O)CCC(C)(F)F)c1cnc2[nH]c(-c3n[nH]c4c3CCC(C)(C)C4)nc2c1 [Example 97, N-(2-(6,6-Dimethyl-4,5,6,7-tetrahydro-1H-indazol-3-yl)-3H-imidazo[4,5-b]pyridin-6-yl)-4,4-difluoro-N-methylpentanamide] | 56 | 287 | 92

— patent US20240124439A1, “Pyrido[2,3-D]Imidazole Derivatives and Their Use As Inhibitors of ITK for the Treatment of Skin Disease” (Pfizer Inc., priority 2020, published 2024)
